In the CheMixHub viscosity set:

Test: xn = mol fraction of the nth substance listed

OCCCO + CC#N
viscosity [mPa·s], 100 kPa
Conditions | x2 = 0.1027 | x2 = 0.2001 | x2 = 0.3048 | x2 = 0.4057 | x2 = 0.5001 | x2 = 0.6001 | x2 = 0.6993 | x2 = 0.8002 | x2 = 0.8956
293.15 K | 31.4 | 19.6 | 11.4 | 6.84 | 4.12 | 2.59 | 1.59 | 0.92 | 0.58
298.15 K | 24.7 | 14.5 | 8.12 | 4.69 | 2.89 | 1.91 | 1.23 | 0.73 | 0.47
303.15 K | 19.4 | 11.2 | 5.78 | 3.33 | 2.21 | 1.37 | 0.89 | 0.58 | 0.39

NC=O + CC(C)(C)O
308 K, 101 kPa
Conditions | viscosity [mPa·s]
x1 = 0.1112 | 2.784
x1 = 0.2296 | 3.129
x1 = 0.3735 | 3.402
x1 = 0.5054 | 3.512
x1 = 0.6138 | 3.505
x1 = 0.7045 | 3.383
x1 = 0.7815 | 3.224
x1 = 0.8476 | 3.024
x1 = 0.9051 | 2.817

OCCCl + CCCO
viscosity [mPa·s], 101.33 kPa
Conditions | x1 = 0.099 | x1 = 0.1945 | x1 = 0.2948 | x1 = 0.3912 | x1 = 0.4924 | x1 = 0.5924 | x1 = 0.693 | x1 = 0.8071 | x1 = 0.8959
298.15 K | 1.761 | 1.802 | 1.842 | 1.92 | 2.028 | 2.148 | 2.281 | 2.428 | 2.6
303.15 K | 1.58 | 1.62 | 1.67 | 1.735 | 1.813 | 1.891 | 2.02 | 2.16 | 2.3
308.15 K | 1.4 | 1.44 | 1.48 | 1.542 | 1.606 | 1.678 | 1.76 | 1.88 | 2.001

N#C[C-](C#N)C#N.OCC[n+]1ccccc1 + c1ccsc1
Conditions | viscosity [mPa·s]
313.15 K, 101 kPa, x1 = 0.4042 | 9.96

CCCC(O)CC (centres undefined) + CO
298.15 K, 101.33 kPa
Conditions | viscosity [mPa·s]
x2 = 0.1014 | 4.298
x2 = 0.2029 | 3.945
x2 = 0.3111 | 3.363
x2 = 0.4188 | 2.737
x2 = 0.503 | 2.278
x2 = 0.6078 | 1.758
x2 = 0.7072 | 1.383
x2 = 0.7994 | 1.054
x2 = 0.9014 | 0.7655

CCN(CC)CC(=O)Nc1c(C)cccc1C + Cc1ccc(C(C)C)c(O)c1
100 kPa, x2 = 0.5
Conditions | viscosity [mPa·s]
293.15 K | 177.3
298.15 K | 111.3
303.15 K | 73.71
308.15 K | 51.05
313.15 K | 36.76
318.15 K | 27.36
323.15 K | 20.98

CCCCCCCCCCC + CCCCCCCCC
298.15 K, 101.33 kPa
Conditions | viscosity [mPa·s]
x2 = 0.1034 | 1.03
x2 = 0.2088 | 0.9658
x2 = 0.3024 | 0.931
x2 = 0.4073 | 0.8929
x2 = 0.5057 | 0.8476
x2 = 0.6037 | 0.8141
x2 = 0.7055 | 0.77
x2 = 0.8002 | 0.7331
x2 = 0.9038 | 0.687

OCCCO + CN(C)C=O
308.15 K, 101 kPa
Conditions | viscosity [mPa·s]
x1 = 0.0229 | 0.76
x1 = 0.0468 | 0.834
x1 = 0.0914 | 0.904
x1 = 0.2048 | 1.267
x1 = 0.3032 | 1.748
x1 = 0.397 | 2.4
x1 = 0.4994 | 3.516
x1 = 0.597 | 5.056
x1 = 0.699 | 7.606
x1 = 0.7983 | 11.93
x1 = 0.9001 | 17.75
x1 = 0.9477 | 20.44

OCCCO + c1ccncc1
Conditions | viscosity [mPa·s]
313.15 K, 101 kPa, x2 = 0.3 | 8.615

OCCCl + CCCCCO
viscosity [mPa·s], 101.33 kPa
Conditions | x1 = 0.0959 | x1 = 0.194 | x1 = 0.2912 | x1 = 0.3946 | x1 = 0.4922 | x1 = 0.5939 | x1 = 0.6962 | x1 = 0.8018 | x1 = 0.8986
298.15 K | 3.401 | 3.282 | 3.2 | 3.138 | 3.088 | 3.045 | 3.02 | 2.98 | 2.92
303.15 K | 2.941 | 2.86 | 2.78 | 2.731 | 2.705 | 2.69 | 2.661 | 2.62 | 2.56
308.15 K | 2.58 | 2.5 | 2.441 | 2.401 | 2.384 | 2.378 | 2.34 | 2.323 | 2.25

CN1CCC[C@H]1c1cccnc1 + CCC(C)=O
viscosity [mPa·s], 101 kPa
Conditions | x1 = 0.1253 | x1 = 0.2463 | x1 = 0.3642 | x1 = 0.4878 | x1 = 0.6133 | x1 = 0.7374 | x1 = 0.883
298.15 K | 0.5454 | 0.7187 | 0.9572 | 1.246 | 1.646 | 2.2 | 3.069
323.15 K | 0.4075 | 0.5104 | 0.6647 | 0.8283 | 1.041 | 1.316 | 1.767

CCOC(=O)CCC(=O)OCC + CC(C)CCO
viscosity [mPa·s], 100 kPa
Conditions | 293.15 K | 298.15 K | 313.15 K
x1 = 0.5 | – | 2.025 | –
x1 = 0.7999 | 2.455 | – | 1.635

O[C@@H]1CO[C@H]2[C@@H]1OC[C@@H]2O + C[N+](C)(C)CC(=O)[O-]
Conditions | viscosity [mPa·s]
298.15 K, 101.33 kPa, x1 = 0.7 | 513.3

OCCCl + CCCCOC(C)=O
viscosity [mPa·s], 101.33 kPa
Conditions | x1 = 0.1068 | x1 = 0.2078 | x1 = 0.3045 | x1 = 0.4056 | x1 = 0.5002 | x1 = 0.5993 | x1 = 0.7 | x1 = 0.8008 | x1 = 0.8994
298.15 K | 0.718 | 0.784 | 0.865 | 0.97 | 1.105 | 1.286 | 1.549 | 1.919 | 2.359
303.15 K | 0.669 | 0.732 | 0.801 | 0.894 | 1.013 | 1.169 | 1.391 | 1.704 | 2.106
308.15 K | 0.627 | 0.684 | 0.746 | 0.828 | 0.932 | 1.07 | 1.262 | 1.518 | 1.849
